# Publication PMC3005762 (Chemical communications (Cambridge, England), 2010)
# Biological target: T1, DC-SIGN (Homo sapiens, UniProt Q9NNX6)
# T1 sequence (Q9NNX6 59-404 limits assumed): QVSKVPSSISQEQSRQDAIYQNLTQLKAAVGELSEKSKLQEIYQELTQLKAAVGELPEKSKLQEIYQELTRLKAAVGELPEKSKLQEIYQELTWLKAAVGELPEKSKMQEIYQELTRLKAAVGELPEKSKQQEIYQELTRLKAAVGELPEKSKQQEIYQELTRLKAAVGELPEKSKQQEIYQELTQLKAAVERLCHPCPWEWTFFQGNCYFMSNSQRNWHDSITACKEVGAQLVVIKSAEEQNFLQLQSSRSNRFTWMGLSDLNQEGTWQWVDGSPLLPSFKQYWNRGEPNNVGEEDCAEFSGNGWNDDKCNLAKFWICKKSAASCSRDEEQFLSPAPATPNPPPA
# Format: binding
compound,measurement,value
CC(=O)N[C@@H]1C(O)O[C@H](CO)[C@@H](O)[C@@H]1O (stereo partly shown) [N-acetylmannosamine],IC50,11.2 ± 0.7 mM
